Source: patent US20190388377A1, “COMPOSITIONS AND METHODS FOR THE TREATMENT OF LIVER DISEASES AND DISORDERS” (AXCELLA HEALTH INC., priority 2018, published 2019)

How the values were obtained:
Albumin = Albumin secretion after 72 h by ELISA, PHH model, Example 2; assay type: cell-based, human; conditions: FFA+TNFα
Experimental: PHH from two healthy human donors (Lonza, TRL) were seeded on day 0 at density of 6e04 cells in 96 well optical microplates (Thermofisher) in hepatocyte plating media (William's E medium, WEM) (Gibco) supplemented with 10% heat-inactivated FBS (Atlanta Bio), 2 mM Glutamax (Gibco), and 0.2% Primocin (InVivoGen) and incubated for 6 hours at 37° C., 5% CO2. After 6 hours, cells were washed twice and incubated overnight at 37° C., 5% CO2 with Hepatocytes defined medium (Corning) supplemented with 2 mM Glutamax (Gibco), and 1× Penicillin/Streptomycin. On day 1, cells were washed twice and incubated for 24 h in the hepatocyte culture media in the same conditions described above.
On day 2, cells were washed twice with DPBS 1× (Gibco) to remove excess amino acids and maintained in pretreatment media (1×HMDB, a defined custom amino acid concentration based on the mean physiological concentrations in blood, in WEM±supplemental amino acids): • a. Amino acid-free WEM (US Biologicals) supplemented with 11 mM Glucose (Sigma), 0.272 mM Sodium Pyruvate (Sigma), 1× P/S (Gibco) and containing 1×HMDB with no supplemental amino acids; or • b. The same media described above 1×HMDB WEM with supplemental amino acid and amino acid combination treatments at various concentrations. Cells were maintained in the defined media (a. & b.) for 24 hours at 37° C., 5% CO2. The HMDB values are published in the Human Metabolome Database (Wishart D S, Tzur D, Knox C, et al., HMDB: the Human Metabolome Database. Nucleic Acids Res. 2007 January; 35 (Database issue):D521-6. 17202168; which is hereby incorporated by reference in its entirety). Co-Treatment with Free Fatty Acids and Amino Acids Combination
After 24 h pre-treatment, cells maintained in the pretreatment media±supplemental amino acids (section (a. & b.) described above) were exposed to free fatty acids (FFA) at 250 uM with a ratio of 2:1 (Oleate:Palmitate) supplemented with TNF-α (Thermofisher) at 1 ng/ml. Cells were incubated with the FFAs mixture (FFAs+TNF-α)±supplemental amino acids treatments for 24 hours at 37° C., 5% CO2. After 24 hours incubation, media was removed for cytokine analysis and replaced by fresh media containing the same conditions described above (FFAs mixture±supplemental amino acids treatments). Cells were incubated for an additional 48 hours for a total of 72 hours of FFA and TNF-α stimulation. After 72 hours of incubation, media was removed for albumin and urea analysis and the cells were fixed for nuclei and lipid staining.
Albumin secretion was measured as a functionality test in primary human hepatocytes. Albumin was measured by ELISA (Human Albumin ELISA Quantitation set, Bethyl Laboratories) at 1/200 dilution in the sample diluent (Bethyl Laboratories). Data is reported as median fold change from control, statistical analysis was done using t-Test.

[1] = system: alpha smooth muscle actin (αSMA); assay: HSC activation by alpha SMA immunostaining, TGFβ1-stimulated hepatic stellate cells; assay type: cell-based, human
Experimental: Primary human hepatic stellate cells were obtained from Samsara Sciences. Cells from three different donors were grown in Complete HSC Medium to ˜80% confluence in T75 or T150 flasks below passage 10 were seeded into sterile, collagen I coated, 96-well optical plastic microplates (ThermoScientific) and incubated overnight at 37° C., 5% CO2 in a humidified incubator in DMEM with 2% Fetal Bovine Serum and 1% Antimycotic. […] After 24 hours of stimulus, supernatant was removed and used to measure Procollagen III and cells were then washed and fixed with 4% paraformaldehyde for further staining.
Procollagen III, an important biomarker of fibrosis was measured by ELISA (Human PCIII Elisa Kit, G-Biosciences) following the manufacturer's recommendations. Fixed cells with 4% paraformaldehyde were permeabilized with 0.1% Triton X-100 then immunostained for alpha SMA and labeled for EdU incorporation.
Cells were imaged using ImageXpress micro confocal high content imager (Molecular Devices). […] Image analysis was performed using MetaXpress version 6.2.3.733 (Molecular Devices).
Fixed cells immunostained for alpha smooth muscle actin (αSMA) were analyzed and stained area was normalized to total nuclei count. Fold change were calculated relative to the baseline amino acid (1×HMDB) condition stimulated with 3 ng/mL TGFβ1.

TNFa = TNFa secretion by ELISA, LPS-treated primary human M1 macrophages, Example 5; assay type: cell-based
Experimental: Primary human PMBC derived macrophages were seeded on day 0 at 3.0E4 cells per well in 96-well microplates (ThermoFisher) in Dulbecco's Modified Eagle Medium (DMEM) (Gibco) supplemented with penicillin-streptomycin (Hyclone) and 10% heat inactivated fetal bovine serum (HI-FBS) (Atlanta Bio) and incubated overnight at 37° C., 5% CO2. On day 1, cells were washed once with 150 uL per well DPBS (Gibco) and treated with 75 uL of: • a. Amino acid free DMEM (US Biologicals) containing a defined custom amino acid concentration based on the mean physiological concentrations in blood based on values published in the Human Metabolome Database (HMDB), with 6 mM glucose, 1 mM sodium pyruvate, 10 mM HEPES, 0.2% primocin (InVivoGen); or • b. The same media described above with supplemental amino acid and amino acid combination treatments at various concentrations. […]
(§1) On day 3, the supernatant was collected and immediately frozen in −80° C. freezer. Cells were washed once with 150 uL DPBS and viability was assessed using the WST-8 Cell Proliferation Cytotoxicity Assay (Dojindo). […] Protein levels in supernatant samples were analyzed by ELISA for IL-6 and TNFa using commercially available kits (R&D Systems) according to manufacturer-supplied protocols.

CCL18 = CCL18 secretion by ELISA, IL-4-treated primary human M2 macrophages, Example 5; assay type: cell-based; conditions: IL-4 1 ng/ml, 5 mM
Experimental: On day 0, primary human PBMC derived macrophages were seeded in Dulbecco's Modified Eagle Medium (DMEM) (Gibco) supplemented with penicillin-streptomycin (Hyclone) and 10% heat inactivated fetal bovine serum (HI-FBS) (Atlanta Bio) into 96-well microplates (ThermoFisher) and incubated overnight at 37° C., 5% CO2. On day 1, cells were washed once with DPBS and then treated with: • a. Amino acid free DMEM (US Biologicals) containing a defined custom amino acid concentration based on the mean physiological concentrations in blood based on values published in the Human Metabolome Database (HMDB), with 6 mM glucose, 1 mM sodium pyruvate, 10 mM HEPES, penicillin-streptomycin; or • b. The same medium described above with one amino acid or amino acid combination at various concentrations
On day 2, cells were treated with the same mediums described above supplemented with recombinant human interleukin-4 (1 ng/ml of IL-4; Peprotech). […]
as §1, with “with” for “with 150 uL”, “(Dojindo) according to manufacturer-supplied protocol.” for “(Dojindo).”, “CCL18” for “IL-6 and TNFa”

## CC(=O)N[C@@H](CS)C(=O)O [Nac, N-acetylcysteine]
Albumin; hepatocyte donor 1
  albumin secretion (in words): slightly decreased albumin secretion
Albumin; hepatocyte donor 2
  albumin secretion (in words): induce albumin secretion
[1]
  alpha SMA stained area (in words): reduced the alpha SMA stained area at a high level
TNFa
  LPS-stimulated TNFa secretion (in words): decreased LPS-stimulated IL-6 and TNFa secretion
CCL18
  CCL18 Median Fold Change from Vehicle (log2): 0.387 log2
